In patent EP0977755B1, “HETEROCYCLIC COMPOUNDS AND THEIR PREPARATION AND USE” (NOVO NORDISK A/S, priority 1997, dated 1998):
Structures can show the parent of a compound that is named as a salt. Where two headings read alike, the source gives them in different places.

Target: T1, m1 muscarinic receptor (Rattus norvegicus, UniProt P08482)
T1 construct: expressed in transfected cells; host or cells: A9 L cells (mouse fibroblast line)
T1 sequence (P08482 1-460): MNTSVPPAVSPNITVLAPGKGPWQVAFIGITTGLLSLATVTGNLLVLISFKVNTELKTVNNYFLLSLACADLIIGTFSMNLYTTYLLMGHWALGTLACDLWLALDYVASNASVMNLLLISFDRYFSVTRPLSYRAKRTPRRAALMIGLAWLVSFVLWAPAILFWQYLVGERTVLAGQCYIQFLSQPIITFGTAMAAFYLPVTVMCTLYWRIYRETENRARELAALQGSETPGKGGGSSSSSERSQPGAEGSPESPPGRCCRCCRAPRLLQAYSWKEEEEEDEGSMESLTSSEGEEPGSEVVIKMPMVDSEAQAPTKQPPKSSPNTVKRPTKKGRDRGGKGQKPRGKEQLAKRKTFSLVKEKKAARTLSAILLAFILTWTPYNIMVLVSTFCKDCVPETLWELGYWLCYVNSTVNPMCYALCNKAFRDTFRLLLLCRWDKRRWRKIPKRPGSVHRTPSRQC
Experiment: IP hydrolysis in A9 L cells cloned with the genetic m1 muscarinic receptor
Assay type: cell-based, human and rat
Conditions: for Emax: A9L-m1, 0.75 h, read-out: % PI (efficacy); for Emax / % PI (efficacy): percentage of total [3H]IP accumulated in the presence of 100 µM carbachol stimulation, 37°C for 45 min; for EC50: IP hydrolysis, seven point curves, three separate experiments
Description: IP hydrolysis in A9 L cells cloned with the genetic m, muscarinic receptor: A9 L cells transfected with human and rat m, muscarinic receptors (Dörje et al., 1991; Jones et al., 1988), were cultured to confluence in 75-ml flasks containing Dulbecco's modified essential media. Cells were prelabeled with 1 µCi/ml of myo(2-[^3H]inositol (Amersham Inc., 16.3 Ci/mmol) for 48 hr before assaying. On the day of assay, cells were detached using a 30-sec exposure to 0.25% trypsin in 1 mM EDTA. The cells were collected by centrifugation (300 x g for 5 min) and resuspended in oxygenated HEPES buffer containing 10 mM LiCl (NaCl 142 mM, KCl 5.6 mM, CaCl2 2.2 mM, MgCl2 1 mM, NaHCO3 3.6 mM, D-glucose 5.6 mM and Na^+ HEPES 30 mM, pH 7.4). Cells were incubated at 37°C for 45 min in the presence of varying concentrations of test compounds. Total IP hydrolysis was determined using the method of Schoepp and Johnson (1988). […] Half-maximal (EC50) values were determined from the mean (±S.D.) of seven point curves determined from three separate experiments.

| Emax [%] | EC50 (read-out: EC50) [nM] | % PI (efficacy) (45 min) [%] | % PI (efficacy) [%] | Compound | EC50 (EC50, nM) [nM] |
| --- | --- | --- | --- | --- | --- |
| 80 | 210 |  |  | C(#Cc1ccccc1)COc1nsnc1[C@H]1CN2CC[C@@H]1C2 (racemic) [Compound 1, Endo (+-) 3-(3-(3-Phenyl-2-propyn-1-yloxy)-1,2,5-thiadiazol-4-yl)-1-azabicyclo[2 2.1]heptane,(+)--tartrate] |  |
| 100 | 0.7 |  |  | C(#Cc1ccccc1)COc1nsnc1C1CN2CCC1C2 (racemic) [Compound 13, Exo (+-) 3-(3-(3-Phenyl-2-propyn-1-yloxy)-1.2.5-thiadlazol-4-yl)-1-azabicyclo[2 2.1]heptane, (+)-tartrate] |  |
|  | 159 | 77 |  | C(#Cc1ccccc1)COc1nsnc1[C@H]1CN2CC[C@@H]1C2 (single isomer, unassigned) [Compound 4, Endo (α)-3-(3-(3-Phenyl-2-propyn-1-yloxy)-1,2,5-thiadiazol-4-yl)-1-azabicyclo[2.2.1]heptane, (+)-tartrate] |  |
|  | 42 | 73 |  | COc1cccc(C#CCOc2nsnc2[C@H]2CN3CC[C@@H]2C3)c1 (single isomer, unassigned) [Compound 5, Endo (α)-3-(3-(3-(3-Methoxyphenyl)-2-propyn-1-yloxy)-1,2,5-thiadiazol-4-yl)-1-azabicyclo[2.2.1]heptane, (+)-tartrate] |  |
| 57 | 75 |  |  | COc1cccc(C#CCOc2nsnc2[C@H]2CN3CC[C@@H]2C3)c1 (single isomer, unassigned) [Compound 10, Endo (β)-3-(3-(3-(3-Methoxyphenyl)-2-propyn-1-yloxy)-1,2,5-thiadiazol-4-yl)-1-azabicyclo[2.2.1]heptane, (-)-tartrate] |  |
| 64 | 98 |  |  | C(#Cc1ccccc1)COc1nsnc1[C@H]1CN2CC[C@@H]1C2 (single isomer, unassigned) [Compound 11, Endo (β)-3-(3-(3-Phenyl-2-propyn-1-yloxy)-1,2,5-thiadiazol-4-yl)-1-azabicyclo[2.2.1]heptane, (+)-tartrate] |  |
| 93 | 280 |  |  | C(#Cc1ccccc1)COc1nsnc1[C@@H]1CN2CCC[C@H]1C2 [Compound 26, Endo (5R,6S)-6-(3-(3-Phenyl-2-propyn-1-yloxy)-1,2,5-thiadiazol-4-yl)-1-azabicyclo[3 2 1]octane, (+)-tartrate] |  |
| 79 | 187 |  |  | Fc1ccc(C#CCOc2nsnc2[C@@H]2CN3CCC[C@H]2C3)cc1 [Compound 27, Endo (5R,6S)-6-(3-(3-(4-Fluorophenyl)-2-propyn-1-yloxy)-1,2,5-thiadiazol-4-yl)-1-azabicyclo[3.2.1]octane, (+)-tartrate] |  |
| 97 | 22 |  |  | COc1cccc(C#CCOc2nsnc2[C@@H]2CN3CCC[C@H]2C3)c1 [Compound 28, Endo (5R,6S)-6-(3-(3-(3-Methoxyphenyl)-2-propyn-1-yloxy)-1,2,5-thiadiazol-4-yl)-1-azabicyclo[3.2.1]octane, (+)-tartrate] |  |
| 102 | 0.5 |  |  | C(#Cc1ccccc1)COc1nsnc1[C@H]1C[N@@]2CCC[C@H]1C2 [Compound 40, Exo (5R,6R)-6-(3-(3-Phenyl-2-propyn-1-yloxy)-1,2,5-thiadiazol-4-yl)-1-azabicyclo[3.2.1]octane, oxalate] |  |
| 100 | 2 |  |  | COc1cccc(C#CCOc2nsnc2[C@H]2CN3CCC[C@H]2C3)c1 [Compound 41, Exo (5R,6R)-6-(3-(3-(3-Methoxyphenyl)-2-propyn-1-yfoxy)-1,2,5-thiadiazol-4-yl)-1-azabicyclo[3.2.1]octane, oxalate] |  |
| 99 | 12 |  |  | FC(F)(F)c1cccc(C#CCOc2nsnc2[C@H]2CN3CCC[C@H]2C3)c1 [Compound 42, Exo (5R,6R)-6-(3-(3-(3-Trifluoromethylphenyl)-2-propyn-1-yloxy)-1,2,5-thiadiazol-4-yl)-1-azabicyclo[3.2.1]octane, (+)-tartrate] |  |
| 85 | 9 |  |  | COc1cccc(C#CC(C)Oc2nsnc2[C@H]2CN3CCC[C@H]2C3)c1 (stereo partly drawn) [Compound 43, Exo (5R,6R)-6-(3-(3-(3-Methoxyphenyl)-1-methyl-2-propyn-1-yloxy)-1,2,5-thiadiazol-4-yl)-1-azabicyclo[3.2.1]octane, (+)-tartrate] |  |

Further lines, the compound ahead of its results:

| Compound | Emax [%] | EC50 (read-out: EC50) [nM] | % PI (efficacy) (45 min) [%] | % PI (efficacy) [%] | EC50 (EC50, nM) [nM] |
| --- | --- | --- | --- | --- | --- |
| CC(C)C(C#Cc1ccsc1)Oc1nsnc1C1CN2CCC1C2 (mixture of isomers) [Compound 16, Exo (+-) 3-(3-(1-(3-Thienyl)-4-methyl-1-pentyn-3-yloxy)-1 ,2,5-thiadiazol-4-yl)-1-azabicyclo[2.2.1]heptane, (+)-tartrate] | 56 | 14 |  |  |  |
| Fc1ccc(C#CCOc2nsnc2[C@H]2CN3CC[C@@H]2C3)cc1 (racemic) [Compound 2, Endo (+-) 3-(3-(3-(4-Fluorophenyl)-2-propyn-1-yloxy)-1,2,5-thiadiazol-4-yl)-1-azabicyclo[2.2.1]heptane,(+)-tartrate] | 74 | 1800 |  |  |  |
| C(#Cc1ccccc1)COc1nsnc1C1CN2CCC1CC2 (racemic) [Compound 53, (+-)3-(3-(3-Phenyl-2-propyn-1-yloxy)-1,2,5-thiadiazol-4-yl)-1-azabicyclo[2.2.2]octane, oxalate] |  |  |  |  | 13 |
| Fc1ccc(C#CCOc2nsnc2C2CN3CCC2CC3)cc1 (racemic) [Compound 54, (+-) 3-(3-(3-(4-Fluorophenyl)-2-propyn-1-yloxy)-1,2,5-thiadiazol-4-yl)-1-azabicyclo[2.2.2]octane, oxalate] |  | 224 |  |  |  |
| Fc1ccc(C#CCOc2nsnc2[C@H]2CN3CC[C@@H]2C3)cc1 (single isomer, unassigned) [Compound 3, Endo (α)-3-(3-(3-(4-Fluorophenyl)-2-propyn-1-yloxy)-1.2.5-thiadiazol-4-yl)-1-azabicyclo[2.2.1]heptane.(+)-tartrate] | 81 | 95 |  |  |  |
| C(#Cc1ccsc1)COc1nsnc1[C@H]1CN2CC[C@@H]1C2 (single isomer, unassigned) [Compound 7, Endo (α)-3-(3-[3-(3-Thienyl)-2-propyn-1-yloxy]-1,2,5-thiadiazol-4-yl)-1-azabicyclo[2.2 1]heptane, (+)-tartrate] | 108 | 380 |  |  |  |
| C(#Cc1cccs1)COc1nsnc1[C@H]1CN2CC[C@@H]1C2 (single isomer, unassigned) [Compound 8, Endo (α)-3-(3-(3-(2-Thienyl)-2-propyn-1-yloxy)-1,2,5-thiadiazol-4-yl)-1-azabicyclo[2 2 1]heptane. (+)-tartrate] | 91 | 670 |  |  |  |
| Fc1ccc(C#CCOc2nsnc2[C@H]2CN3CC[C@@H]2C3)cc1 (single isomer, unassigned) [Compound 9, Endo (β)-3-(3-(3-(4-Fluorophenyl)-2-propyn-1-yloxy)-1.2.5-thiadiazol-4-yl)-1-azabicyclo[2 2.1]heptane, (-)-tartrate] |  | 38 | 68 |  |  |
| C(#Cc1ccccc1)CSc1nsnc1[C@@H]1CN2CCC[C@H]1C2 [Compound 20, Endo (5R,6S)-6-(3-(3-Phenyl-2-propyn-1-ylthio)-1,2,5-thiadiazol-4-yl)-1-azabicyclo[3,2 1]octane, (+)-tartrate] | 98 | 1 |  |  |  |
| Fc1cccc(C#CCSc2nsnc2[C@@H]2CN3CCC[C@H]2C3)c1 [Compound 21, Endo (5R,6S)-6-(3-(3-(3-Fluorophenyl)-2-propyn-1-ylthio)-1,2,5-thiadiazol-4-yl)-1-azabicyclo[3.2.1]octane, (+)-tartrate] | 67 | 105 |  |  |  |
| C(#Cc1ccsc1)CSc1nsnc1[C@@H]1CN2CCC[C@H]1C2 [Compound 24, Endo (5R,6S)-6-(3-(3-(3-Thienyl)-2-propyn-1-ylthio)-1,2,5-thiadiazol-4-yl)-1-azabicyclo[3.2.1]octane, (+)-tartrate] | 105 | 300 |  |  |  |
| C(#Cc1cccs1)CSc1nsnc1[C@@H]1CN2CCC[C@H]1C2 [Compound 25, Endo (5R,6S)-6-(3-(3-(2-Thienyl)-2-propyn-1-ylthio)-1,2,5-thiadiazol-4-yl)-1-azabicyclo[3.2.1]octane, (+)-tartrate] | 69 | 210 |  |  |  |
| C(#Cc1ccsc1)COc1nsnc1[C@@H]1CN2CCC[C@H]1C2.O=C(O)C(O)C(O)C(=O)O [Compound 30, Endo (5R,6S)-6-(3-[3-(3-Thienyl)-2-propyn-1-yloxy]-1,2,5-thiadiazol-4-yl)-1-azabicyclo[3.2.1]octane, (+)-tartrate] |  | 20 |  | 82 |  |
| C(#Cc1cccnc1)COc1nsnc1[C@@H]1CN2CCC[C@H]1C2 [Compound 31, Endo (5R,6S)-6-(3-[3-(3-Pyridyl)-2-propyn-1-yloxy]-1,2,5-thiadiazol-4-yl)-1-azabicyclo[3.2.1]octane, (+)-tartrate] |  |  |  |  | 26 |
| C(#Cc1ccccc1)CSc1nsnc1[C@H]1C[N@@]2CCC[C@H]1C2 [Compound 39, Exo (5R,6R)-6-(3-(3-Phenyl-2-propyn-1-ylthio)-1,2,5-thiadiazol-4-yl)-1-azabicyclo[3.2.1]octane. (+)-tartrate] | 105 | 0.2 |  |  |  |
